Results reported in patent US20170086467A1, “MOLLUSCICIDE COMPOSITIONS AND METHODS OF USE THEREOF” (ECOFLORA AGRO SAS, priority 2014, published 2017).
Read-outs that look alike come from different tables or passages of the source.

Key:
[1] = test system: banana tree snails (African snails); assay: Mortality of banana plantation snails on treated plates in a shade house; assay type: in vivo; settings: T7, 2 g/plate
Description: The experiments were conducted in a shade house. Plastic plates and baskets for cover were used to keep the snails in contact with the products. Live snails were obtained by collection/pick up in a banana plantation. Approximately 250 snails were captured early in the morning, the time of day when they are still found in large numbers on the leaves and trunks of banana plants.
BROMOREX® 9.37 is a liquid formulation comprising capsicum extract and mustard essential oil. metaldehyde is a chemical molluscicide.
Four plates per treatment were randomly arranged on a shelf in the shade house. At the bottom of each plate small portions of banana leaves, papaya, and two slices of ripe bananas were placed. 20 mL of each sample was poured into each plate. Eight live snails of the same morphology and size were placed on each plate. Each treatment was repeated 4 times. The plates were covered with baskets that promoted good ventilation and prevented the snails from escaping. The treatments were carried out in late afternoon.
The behavior of snails in contact with the products as well as the mortality of the snails were recorded and interpreted. The data on the mortality of snails to 5 days after application of the products were statistically analyzed using the R software version 3.0.1. The separation of averages for significant effects was made using the Newman-Keuls test at 5% significant level.

[2] = 200° C.; one hour drying
Description: Caffeine was also quantitated by HPLC to determine the thermal stability of the molecule.

CC1OC(C)OC(C)OC(C)O1 (stereo not shown) [metaldehyde]
mortality rate ([1]; 3 hours after treatment): 6.25%
mortality rate ([1]; after 5 days): 34%

Cn1c(=O)c2c(ncn2C)n(C)c1=O [caffeine, 3,7-dihydro-1,3,7-trimethyl-1H-purine-2,6-dione]
thermal stability (in words) [2]: Pyrolysis and caffeine sublimation were observed
thermal stability (in words): stable
